For orientation: IC50 means the concentration at which inhibition is half-maximal. As usually defined, the EC50 is the concentration giving half of the maximal effect. Lower therefore signals higher potency in that assay.

This passage reports IC50 and EC50 results from patent publication US12312359B2 (Vitae Pharmaceuticals, LLC, priority 2016, dated 2025).

Assay [1] addresses T1, biotinylated wild-type menin and MLL-AF9 fusion protein (menin/MLL binding) (Homo sapiens, UniProt O00255).
T1 construct: made in house; host or cells: menin: E. coli; MLL-AF9-FLAG: HEK293 cells, used as cleared lysate
T1 sequence (O00255 1-610): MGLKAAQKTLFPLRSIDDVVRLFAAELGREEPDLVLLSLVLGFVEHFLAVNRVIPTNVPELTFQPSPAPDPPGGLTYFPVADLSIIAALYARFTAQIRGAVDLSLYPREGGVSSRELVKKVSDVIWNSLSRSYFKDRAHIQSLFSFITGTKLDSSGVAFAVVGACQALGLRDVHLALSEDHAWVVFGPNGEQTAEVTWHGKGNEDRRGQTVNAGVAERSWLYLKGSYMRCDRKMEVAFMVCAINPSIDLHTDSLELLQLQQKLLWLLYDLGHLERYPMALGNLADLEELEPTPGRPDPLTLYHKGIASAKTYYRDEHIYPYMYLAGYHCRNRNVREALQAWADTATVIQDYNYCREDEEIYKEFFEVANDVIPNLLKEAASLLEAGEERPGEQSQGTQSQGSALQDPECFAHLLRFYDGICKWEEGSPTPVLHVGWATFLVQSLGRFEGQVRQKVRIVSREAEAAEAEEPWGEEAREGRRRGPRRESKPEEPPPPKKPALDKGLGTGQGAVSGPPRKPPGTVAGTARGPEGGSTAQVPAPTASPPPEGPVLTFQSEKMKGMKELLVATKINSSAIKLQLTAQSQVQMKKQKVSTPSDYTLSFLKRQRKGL
Description: Assay 1: menin/MLL binding AlphaLISA assay, wild-type menin. As to conditions: Table 30; column head does not say wild-type or mutated menin. Summed up:
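Compound was preincubated 30 min at room temperature with biotinylated menin (5 nM) and MLL-AF9-FLAG lysate from HEK293 cells, pH 7.4 buffer with 5% DMSO and DTT. Bead-based Alpha signal after 60 min with streptavidin donor and anti-FLAG acceptor beads; four-parameter logistic fit gave IC50.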

Assay [2] deals with human acute monocytic leukemia cell line MV-4-11. Briefly: Assay 2: cell proliferation assay (ATP quantitation, CellTiter-Glo), MV-4-11. The class given is cell-based. The conditions noted are these: MV-4-11 cells. Put shortly: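 Read-out is CellTiter-Glo luminescence quantifying ATP. Compound exposure lasted 72 h at 37° C., 5% CO2, with 1.67×10^4 MV-4-11 cells per well in 10% FBS medium, alongside HL-60 toxicity-control cells.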
For orientation: Cellular ATP, detected with luciferase, serves as a proxy for viable cell number.

For the molecule `CC(C)c1nccn1-c1cc(F)ccc1Oc1cncnc1N1CCC2(CCN(Cc3ccc4[nH]c(=O)[nH]c4c3)C2)C1` (stereo not drawn) [Example 53, 5-((7-(5-(4-fluoro-2-(2-isopropyl-1H-imidazol-1-yl)phenoxy)pyrimidin-4-yl)-2,7-diazaspiro[4.4]nonan-2-yl)methyl)-1H-benzo[d]imidazol-2(3H)-one], the IC50 in assay [1] is below 100 nM. In addition, the EC50 in assay [2] (Homo sapiens, MV4-11, 72 h) was below 100 nM.
Molecule `O=c1[nH]c2ccc(CN3CCC4(CCN(c5ncncc5Oc5ccc(F)cc5OCC5CC5)C4)C3)cc2[nH]1` (stereo not drawn) [Example 54, 5-((7-(5-(2-(cyclopropylmethoxy)-4-fluorophenoxy)pyrimidin-4-yl)-2,7-diazaspiro[4.4]nonan-2-yl)methyl)-1,3-dihydro-2H-benzo[d]imidazol-2-one] yielded an IC50 in assay [1] below 100 nM. In assay [2] (Homo sapiens, MV4-11, 72 h), the EC50 was in the range of 100 to 1000 nM.
The matching figures for `CC(O)c1ccccc1-c1cc(F)ccc1Oc1cncnc1N1CCC2(CCN(Cc3ccc4[nH]c(=O)[nH]c4c3)C2)C1` (stereo not drawn) [Example 60, 5-((7-(5-((5-fluoro-2′-(1-hydroxyethyl)-[1,1′-biphenyl]-2-yl)oxy)pyrimidin-4-yl)-2,7-diazaspiro[4.4]nonan-2-yl)methyl)-1H-benzo[d]imidazol-2(3H)-one]: below 100 nM and 100 to 1000 nM.
Regarding `CC(C)N(C)C(=O)c1cc(F)ccc1Oc1cncnc1N1CCC2(CCN(Cc3ccc(N4CCOC4=O)cc3)C2)C1` (stereo not drawn) [Example 62, 5-fluoro-N-isopropyl-N-methyl-2-((4-(7-(4-(2-oxooxazolidin-3-yl)benzyl)-2,7-diazaspiro[4.4]nonan-2-yl)pyrimidin-5-yl)oxy)benzamide], in assay [1], the IC50 was below 100 nM. The molecule also came in with an EC50 in assay [2] (72 h) of 100 to 1000 nM.
`CC(C)(O)c1ccccc1-c1cc(F)ccc1Oc1cncnc1N1CCC2(CCN(Cc3ccc4[nH]c(=O)[nH]c4c3)C2)C1` (stereo not drawn) [Example 63, 5-((7-(5-((5-fluoro-2′-(2-hydroxypropan-2-yl)-[1,1′-biphenyl]-2-yl)oxy)pyrimidin-4-yl)-2,7-diazaspiro[4.4]nonan-2-yl)methyl)-1H-benzo[d]imidazol-2(3H)-one] came in with an IC50 in assay [1] below 100 nM. The same molecule showed an EC50 in assay [2] (Homo sapiens, MV4-11, 72 h) below 100 nM.
In turn, `CC(C)c1ncncc1-c1cc(F)ccc1Oc1cncnc1N1CC2(CN(CC3CCC4(CC3)OCCO4)C2)C1` [Example 64, 2-(1,4-dioxaspiro[4.5]decan-8-ylmethyl)-6-(5-(4-fluoro-2-(4-isopropylpyrimidin-5-yl)phenoxy)pyrimidin-4-yl)-2,6-diazaspiro[3.3]heptane] displayed an IC50 in assay [1] below 100 nM. For the same molecule, the EC50 in assay [2] (Homo sapiens, MV4-11, 72 h) was 100 to 1000 nM.
The matching figures for `CC(C)c1ncncc1-c1cc(F)ccc1Oc1cncnc1N1CC2(CN(CC3CCC(O)CC3)C2)C1` (stereo not drawn) [Example 65, 4-((6-(5-(4-fluoro-2-(4-isopropylpyrimidin-5-yl)phenoxy)pyrimidin-4-yl)-2,6-diazaspiro[3.3]heptan-2-yl)methyl)cyclohexanol]: below 100 nM and 100 to 1000 nM.
`COC(C)c1ccccc1-c1cc(F)ccc1Oc1cncnc1N1CC2(CN(CC3CCOCC3)C2)C1` (stereo not drawn) [Example 67, 2-(5-((5-fluoro-2′-(1-methoxyethyl)-[1,1′-biphenyl]-2-yl)oxy)pyrimidin-4-yl)-6-((tetrahydro-2H-pyran-4-yl)methyl)-2,6-diazaspiro[3.3]heptane] gave an IC50 in assay [1] below 100 nM. This molecule displayed an EC50 in assay [2] (Homo sapiens, MV4-11, 72 h) of 100 to 1000 nM.
The matching figures for `NC1Cc2ccc(-c3cc(F)ccc3Oc3cncnc3N3CC4(CN(CC5CCOCC5)C4)C3)cc2C1` (stereo not drawn) [Example 68, 5-(5-fluoro-2-((4-(6-((tetrahydro-2H-pyran-4-yl)methyl)-2,6-diazaspiro[3.3]heptan-2-yl)pyrimidin-5-yl)oxy)phenyl)-2,3-dihydro-1H-inden-2-amine]: below 100 nM and at least 1000 nM.
